# According to paper PMC8667888, “Discovery of a novel Aurora B inhibitor GSK650394 with potent anticancer and anti-aspergillus fumigatus dual efficacies in vitro” (Journal of Enzyme Inhibition and Medicinal Chemistry, 2021):
# Values joined by “and” are separate entries in the source; they are usually repeats but may differ in a detail not shown here. Equal values may be shown once.
# How the values were obtained:
# [1] = test system: acute myelogenous leukaemia (AML); design: method as in PMID 23763917; conditions: patients with AML, combined with low-dose cytosine arabinoside (LDAC); cited from earlier work
# human Aurora B [2] = molecular target: T1, human Aurora B (Homo sapiens, UniProt Q96GD4); experiment: Luciferase-coupled ATP assay (ATPase activity), human Aurora B; format: biochemical
# T1 construct: the Hs.Aurora B kinase domain (aa.70–344) was co-expressed in E. coli cells; made in house; host or cells: E. coli BL21 (DE3) pLysS
# T1 sequence (Q96GD4 70-344): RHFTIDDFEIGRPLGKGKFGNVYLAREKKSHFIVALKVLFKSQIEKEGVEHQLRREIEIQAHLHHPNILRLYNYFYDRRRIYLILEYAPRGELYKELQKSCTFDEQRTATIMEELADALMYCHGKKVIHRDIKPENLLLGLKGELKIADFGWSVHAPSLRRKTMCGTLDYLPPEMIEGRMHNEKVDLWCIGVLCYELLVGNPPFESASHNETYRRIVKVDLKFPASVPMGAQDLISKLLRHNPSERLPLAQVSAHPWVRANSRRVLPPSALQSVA
# T1 sequence (Q9NQS7 835-904 partner limits assumed): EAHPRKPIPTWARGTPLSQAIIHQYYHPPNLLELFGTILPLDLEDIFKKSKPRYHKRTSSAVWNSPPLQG
# Description: (§1) The pGEX-dual expression plasmid containing human (Hs.) Aurora B kinase domain (aa.54–344) and a C-terminal fragment of Hs.INCENP (aa.835–904) was obtained from Prof. Hongtao Yu (Department of Life Science, Westlake University). The cDNAs of Af.Aurora B kinase domain (aa.1–396, GenBank accession no. EDP54304.1) and the C-terminal fragment of Af.INCENP (aa.1200–1297, GenBank accession no. XP_033417438.1) was synthesised in Union Biotech (China). Protein expression and purification were performed as previously described. Briefly, The recombinant proteins of Aurora B and INCENP were coexpressed in BL21 (DE3) pLysS competent cells. For protein purification, cells co-expressing GST-INCENP and Aurora B proteins were resuspended with lysis buffer containing 50 mM Tris-HCl, pH 8.0, 200 mM NaCl, 5% glycerol, and 0.05% Triton X-100. Cells were disrupted by French Pressure (Union Biotech, China) and the supernatants were collected after centrifugation. The Aurora B/Hs.INCENP complex proteins were pooled through Glutathione columns (Smart-Lifesciences, China). […]
# (§2) A luciferase-based luminescence assay was utilised to determine the ATPase activity of Aurora B according to the manufacture’s protocols (Promega). […] At the end of the reaction, the Kinase-Glo reagent (Promega) was added and the ATPase activity was evaluated by luminescence measurement on the microplate reader (SpectraMax-L, Molecular Devices).
# Af.Aurora B [3] = molecular target: T2, Af.Aurora B (Aspergillus fumigatus, UniProt B0XW52); experiment: Luciferase-coupled ATP assay (ATPase activity), Af.Aurora B; format: biochemical; conditions: IC50, inhibition of ATPase activity of Af.Aurora B, recombinant Af.Aurora B, n = 3
# Description: as §1, §2
# human Haspin = molecular target: T3, human Haspin (Homo sapiens, UniProt Q8TF76); experiment: Luciferase-coupled ATP assay (ATPase activity), human Haspin; format: biochemical; conditions: read-out: IC50, inhibition of human Haspin ATPase activity
# T3 sequence (Q8TF76 1-798): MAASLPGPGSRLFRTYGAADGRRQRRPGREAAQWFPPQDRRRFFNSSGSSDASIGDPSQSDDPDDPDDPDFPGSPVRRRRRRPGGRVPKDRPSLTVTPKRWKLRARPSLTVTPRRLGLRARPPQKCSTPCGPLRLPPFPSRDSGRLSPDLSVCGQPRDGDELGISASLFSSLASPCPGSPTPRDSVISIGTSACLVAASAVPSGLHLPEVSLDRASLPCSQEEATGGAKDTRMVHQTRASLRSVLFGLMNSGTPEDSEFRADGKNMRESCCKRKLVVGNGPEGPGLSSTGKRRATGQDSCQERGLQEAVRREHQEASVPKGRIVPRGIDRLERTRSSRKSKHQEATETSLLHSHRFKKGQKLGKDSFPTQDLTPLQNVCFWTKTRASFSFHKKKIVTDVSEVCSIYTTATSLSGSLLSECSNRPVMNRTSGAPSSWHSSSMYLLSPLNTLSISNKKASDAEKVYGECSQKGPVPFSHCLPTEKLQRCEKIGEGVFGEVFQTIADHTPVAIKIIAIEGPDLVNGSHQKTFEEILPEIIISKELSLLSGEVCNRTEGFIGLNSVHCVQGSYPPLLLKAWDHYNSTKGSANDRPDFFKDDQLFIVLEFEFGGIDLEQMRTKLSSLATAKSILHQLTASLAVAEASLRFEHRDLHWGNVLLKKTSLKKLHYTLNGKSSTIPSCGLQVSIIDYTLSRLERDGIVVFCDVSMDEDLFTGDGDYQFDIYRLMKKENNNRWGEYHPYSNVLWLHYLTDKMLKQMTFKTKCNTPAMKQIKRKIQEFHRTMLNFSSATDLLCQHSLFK
# Description: (§3) A luciferase-based luminescence assay was utilised to determine the ATPase activity of Aurora B according to the manufacture’s protocols (Promega). Briefly, the Aurora B protein was incubated with 10 µM ATP in the absence or presence of various drugs at 30 °C, in a kinase buffer containing 50 mM Tris-HCl, pH7.4, 100 mM NaCl, 10 mM MgCl2, 1 mM DTT, and 0.1% Tween20. At the end of the reaction, the Kinase-Glo reagent (Promega) was added and the ATPase activity was evaluated by luminescence measurement on the microplate reader (SpectraMax-L, Molecular Devices).
# Fig. S2 Effect of GSK650394 on human Haspin. (a) Comparison of ATPase activity between Aurora B and Haspin. The luminescence of ATP only control was normalized to 1.0. The values were normalized to ATP-only control set as 100% inhibition. Values are means ± S.E., n = 3. (b) Inhibition of human Haspin ATPase […]
# (1 picture or pasted object on this page, not shown here)
# V91A Aurora B = molecular target: T4, V91A Aurora B (Homo sapiens, UniProt Q96GD4, V91A); experiment: Luciferase-coupled ATP assay, V91A mutant Aurora B; format: biochemical
# T4 construct: the Hs.Aurora B kinase domain (aa.70–344) was co-expressed in E. coli cells; made in house; host or cells: E. coli BL21 (DE3) pLysS
# T4 sequence (Q96GD4 70-344 V91A): as the sequence (Q96GD4 70-344) above, with V22A counted along it
# T4 sequence (Q9NQS7 835-904 partner limits assumed): as the sequence (Q9NQS7 835-904 partner limits assumed) above
# Description: as §3
# HepG2 = experiment: MTT cell proliferation assay, HepG2; format: cell-based; conditions: Homo sapiens, read-out: IC50, inhibition of proliferation
# Description: (§4) MTT assay was conducted for cell proliferation analysis. Cells were cultured in 96-well plates (6 × 10^3/well) and treated with drugs or left untreated for 24–72 h. After treatment, cells were incubated with MTT solution (0.5 mg/mL) for 4 h at 37 °C. Then, the reactions were terminated by DMSO and the optical densities were measured by absorbance at 570 nm.
# LO2 = experiment: MTT cell proliferation assay, LO2; format: cell-based; conditions: Homo sapiens, L02, read-out: IC50, inhibition of proliferation
# Description: as §4
# MCF-7 = experiment: MTT cell proliferation assay, MCF-7; format: cell-based; conditions: Homo sapiens, MCF7; MCF-7, MTT; read-out: IC50, inhibition of proliferation
# Description: as §4
# HELF = experiment: MTT cell proliferation assay, HELF; format: cell-based; conditions: read-out: IC50, inhibition of proliferation
# Description: as §4
# Hela = experiment: MTT cell proliferation assay, Hela; format: cell-based; conditions: Homo sapiens, read-out: IC50, inhibition of proliferation
# Description: as §4
# [4] = test system: endogenous Aurora B in HepG2 cells; experiment: Histone H3 Ser10 phosphorylation in HepG2 cells (immunoblot); format: cell-based, human; conditions: HepG2, 9 h after release from thymidine arrest
# Description: (§5) HepG2 and HeLa cells were cultured in DMEM and RPMI-1640, respectively, supplemented with 10% foetal bovine serum in 37 °C and 5% CO2. G1/S synchronisation was carried out by treating cells with 2 mM of thymidine for 19 h. […] Subsequently, cells were harvested and subjected to immunoblotting or flow cytometric analysis. For flow cytometry assay, cells were trypsinized, washed once with PBS, and then fixed with cold 75% ethanol. Fixed cells were washed with PBS and resuspended in PBS containing the propidium iodide (Sigma) DNA staining solution, for 30 min at 37 °C. Then, samples were analysed using the Cytoflex cytometer (Beckman Coulter, USA) and the data were processed with the Flow Jo software.
# [5] = test system: endogenous Aurora B in HeLa cells; experiment: Histone H3 Ser10 phosphorylation in HeLa cells (immunoblot); format: cell-based, human; conditions: 9 h after release from thymidine arrest, vs control cells
# Description: as §5
# Aspergillus fumigatus = experiment: Anti-Aspergillus fumigatus plate assay; format: cell-based; conditions: 37 °C, 30 h
# Description: A plate assay was carried out to assess the growth rate of Aspergillus fumigatus. A specified amount of Aspergillus fumigatus spores were inoculated on the centre of the plate containing solid glucose minimal medium in the absence or presence of drugs. After further incubation for 30 h at 37 °C, the growth rate was determined by measuring the diameter of Aspergillus fumigatus clonies on each plate.
# human Aurora B [6] = molecular target: T1, human Aurora B; experiment: In vitro kinase assay (histone H3 Ser10 phosphorylation), human Aurora B; format: biochemical; conditions: Western blot
# Description: (§6) The in vitro kinase assay was performed as previously described. The kinase activity of recombinant Aurora B was assayed by incubating 200 nM purified Aurora B/INCENP protein with 100 µM ATP and 6 µg bulk histones (from calf thymus, Sigma-Aldrich) in kinase buffer containing 50 mM Tris-HCl, pH7.4, 100 mM NaCl, 10 mM MgCl2, 1 mM DTT and 0.1% Tween20. After 15-min incubation at 30 °C, the reaction was quenched by SDS-sample buffer, separated on SDS-PAGE, and immunoblotted with anti-histone H3 and anti-histone H3 phospho-Ser10 (pS10) antibodies. The blots were scanned and quantified with the ChemiDoc™ Touch imaging system (Bio-rad). To investigate the compounds’ inhibitory effect, Aurora B was pre-incubated with DMSO or various concentrations of drugs for 15 min at room temperature and the reactions were then initialised by the addition of ATP and histone substrates.
# Af.Aurora B [7] = molecular target: T2, Af.Aurora B; experiment: In vitro kinase assay (histone H3 phosphorylation), Af.Aurora B; format: biochemical; conditions: Western blot
# Description: as §6
Structure (SMILES),overall response rate [1] [%],IC50 (human Aurora B [2]) [nM],IC50 (Af.Aurora B [3]),IC50 (human Haspin) [nM],reduction of inhibitory effect by mutation of Val91 (V91A Aurora B; V91A vs wild type) [fold],"IC50 (V91A Aurora B; Val91 mutant, read-out: IC50, inhibition of V91A Aurora B) [nM]",IC50 (HepG2) [nM],IC50 (LO2) [nM],IC50 (MCF-7) [nM],IC50 (HELF) [nM],IC50 (Hela) [nM],concentration at which H3 phosphorylation is abolished [4] [µM],effect on histone H3 phosphorylation ([4]; vs control cells),effect on histone H3 phosphorylation [5],growth rate of Aspergillus fumigatus (diameter of colonies) (Aspergillus fumigatus),effect on phosphorylation of histone H3 Ser10 by Aurora B (human Aurora B [6]),effect on kinase activity of Af. Aurora B (Af.Aurora B [7])
CCN(CCCOc1ccc2c(Nc3cc(CC(=O)Nc4cccc(F)c4)n[nH]3)ncnc2c1)CCOP(=O)(O)O [barasertib],45,–,–,–,–,–,–,–,–,–,–,–,–,–,–,–,–
O=C(O)c1ccc(-c2c[nH]c3ncc(-c4ccccc4)cc23)cc1C1CCCC1 [GSK650394],–,5680,1290 nM and 1300 nM,41400,> 20,> 100000,1530 ± 1880,1750 ± 1280,1420 ± 1190,6140 ± 1330,3570 ± 1380,2.5,significant attenuation of histone H3 phosphorylation,significant attenuation of histone H3 phosphorylation,markedly inhibited in a dose-dependent manner,diminish the phosphorylation of histone H3 Ser10,effectively inhibits
